Reference: article PMC3424241, “The Octadecaneuropeptide ODN Protects Astrocytes against Hydrogen Peroxide-Induced Apoptosis via a PKA/MAPK-Dependent Mechanism” (PLoS ONE, 2012)

Assays:
[1] = system: cultured rat astrocytes; experiment: Cell survival after H2O2, FDA fluorescence; format: cell-based; details: for effect of inhibitor on dbcAMP-promoted astroglial cell survival: H89 20 µM or U0126 20 µM, 1 h 300 µM H2O2 with dbcAMP 1 mM; for effect of pathway inhibitor on the protective action of ODN: H89 20 µM, U0126 20 µM, U73122 10 µM, chelerythrine 0.1 µM; for protective effect of receptor ligand on H2O2-induced cell death: 30 min pre-incubation with ligand (OP 0.1 nM, [Ala15]ODN 0.1 nM, clonazepam 10 nM), then 1 h 300 µM H2O2
Method: Secondary cultures of rat cortical astrocytes were prepared as previously described [64]with minor modifications. Briefly, cerebral hemispheres from newborn Wistar rats were collected in DMEM/F12 (2∶1; v/v) culture medium supplemented with 2 mM L-glutamine, 1‰ insulin, 5 mM HEPES, 0.4% glucose and 1% of the antibiotic-antimycotic solution. The tissues were dissociated mechanically with a syringe equipped with a 1-mm gauge needle, and filtered through a 100-µm sieve (Falcon, Franklin Lakes, NJ, USA). […] When cultures were confluent, astrocytes were isolated by shaking overnight the flasks on an orbital agitator. Adhesive cells were detached by trypsination and preplated for 5 min to discard contaminating microglial cells. Then, the non-adhering astrocytes were harvested and plated on 35-mm hydrophilic surface Petri dishes at a density of 3×10^5 cells/ml. […] The cells were incubated at 37°C in a humid atmosphere (5% CO2). […] All experiments were performed on 5- to 7-day-old secondary cultures.
Cultured cells were incubated at 37°C with fresh serum-free culture medium in the absence or presence of H2O2 and/or ODN for 1 h. Cells were then incubated for 10 min at 37°C with 0.3 µg/ml calcein-AM (producing green fluorescence in living cells), rinsed twice with culture medium without probe and examined on an inverted microscope (Leica, Heidelberg, Germany) equipped with a double pass filter.
For quantification of surviving astrocytes, cells were incubated for 8 min with 15 µg/ml FDA-AM, rinsed twice with phosphate-buffered saline (PBS) and lysed with a Tris/HCl solution containing 1% sodium dodecyl sulfate (SDS). Fluorescence was measured with excitation at 485 nm and emission at 538 nm, using a microplate reader (Bio-Tek FLx 800).

[2] = system: ERK1 and ERK2; experiment: ERK phosphorylation, Western blot; format: cell-based, rat; details: ODN 0.1 nM, 1 h; flumazenil 1 µM, cyclo1-8[DLeu5]OP 1 µM, H89 20 µM, U0126 20 µM
Method: (§1) Secondary cultures of rat cortical astrocytes were prepared as previously described [64]with minor modifications. Briefly, cerebral hemispheres from newborn Wistar rats were collected in DMEM/F12 (2∶1; v/v) culture medium supplemented with 2 mM L-glutamine, 1‰ insulin, 5 mM HEPES, 0.4% glucose and 1% of the antibiotic-antimycotic solution. The tissues were dissociated mechanically with a syringe equipped with a 1-mm gauge needle, and filtered through a 100-µm sieve (Falcon, Franklin Lakes, NJ, USA). Dissociated cells were resuspended in culture medium supplemented with 10% FBS, plated in 175-cm^2 flasks (Greiner Bio-one GmbH, Frickenhausen, Germany) and incubated at 37°C in a 5% CO2/[…] atmosphere. When cultures were confluent, astrocytes were isolated by shaking overnight the flasks on an orbital agitator. Adhesive cells were detached by trypsination and preplated for 5 min to discard contaminating microglial cells. Then, the non-adhering astrocytes were harvested and plated on 35-mm hydrophilic surface Petri dishes at a density of 3×10^5 cells/ml. For measurement of cell survival, caspase-3 activity and mitochondrial activity, cells were plated in hydrophilic surface 24-well plates at a density of 8×10^4 cells/ml. The cells were incubated at 37°C in a humid atmosphere (5% CO2). After 5 days (DIV5), more than 99% of the cells were labeled with antibodies against glial fibrillary acidic protein [65]. All experiments were performed on 5- to 7-day-old secondary cultures.
Cultured cells were incubated at 37°C for 1 h with fresh serum-free medium in the absence or presence of test substances. Total proteins were extracted with lysis buffer containing 1% Triton X-100, 50 mM Tris/HCl and 10 mM EDTA. After centrifugation (20,000 g, 4°C, 15 min), the proteins contained in the supernatant were precipitated by addition of ice-cold 10% TCA. The extract was centrifuged (15,000 g, 4°C, 15 min) and washed three times with alcohol/ether. The pellet was denatured (100°C, 5 min) in 50 mM Tris/HCl (pH 7.5) containing 20% glycerol, 0.7 M 2-mercaptoethanol, 0.004% bromophenol blue and 3% SDS, and then migrated on a 10% SDS-polyacrylamide gel electrophoresis (PAGE). After separation, proteins were electrically transferred onto nitrocellulose membrane (Amersham, Les Ulis, France). […] Signal was quantified using an image analysis system (Biocom, Les Ulis, France).

[3] = system: caspase-3; experiment: Caspase-3 activity, fluorometric Z-DEVD-Rhodamine 110; format: cell-based, rat; details: for effect of inhibitor on the inhibitory action of ODN on H2O2-induced caspase-3 activity: H89 20 µM, U0126 20 µM, U73122 1 µM, chelerythrine 1 µM, 30 min pre-incubation, 1 h 300 µM H2O2 with ODN 0.1 nM
Method: as §1
At the end of the incubation with test substances, cultured astrocytes were washed twice with PBS at 37°C, resuspended in DMEM (100 µl) and treated with fluorometric caspase-3 Apo-1 assay system. In brief, 100 µl of the cell suspension was incubated with 100 µl of kit buffer and caspase substrate in 96-well plates. Caspase-3 activity was calculated from the slope of the fluorescence measured every 15 min for 3 h with excitation at 485 nm and emission at 530 nm, and expressed as a percentage of the control.

[4] = system: cAMP formation in astroglial cells (adenylyl cyclase); experiment: cAMP production, radioimmunoassay; format: cell-based, rat; details: antagonist 1 µM, 30 min pre-incubation with 0.1 mM IBMX; ODN 0.1 nM, 10 min
Method: Secondary cultures of rat cortical astrocytes were prepared as previously described [64]with minor modifications. Briefly, cerebral hemispheres from newborn Wistar rats were collected in DMEM/F12 (2∶1; v/v) culture medium supplemented with 2 mM L-glutamine, 1‰ insulin, 5 mM HEPES, 0.4% glucose and 1% of the antibiotic-antimycotic solution. The tissues were dissociated mechanically with a syringe equipped with a 1-mm gauge needle, and filtered through a 100-µm sieve (Falcon, Franklin Lakes, NJ, USA). Dissociated cells were resuspended in culture medium supplemented with 10% FBS, plated in 175-cm^2 flasks (Greiner Bio-one GmbH, Frickenhausen, Germany) and incubated at 37°C in a 5% CO2/[…] atmosphere. When cultures were confluent, astrocytes were isolated by shaking overnight the flasks on an orbital agitator. Adhesive cells were detached by trypsination and preplated for 5 min to discard contaminating microglial cells. Then, the non-adhering astrocytes were harvested and plated on 35-mm hydrophilic surface Petri dishes at a density of 3×10^5 cells/ml. […]
Cultured cells were pre-incubated for 30 min in serum-free medium containing 0.1 mM IBMX to inhibit phosphodiesterases, and then incubated in the same solution, in the presence or absence of test substances. […] The concentration of cAMP was measured by using a cAMP RIA kit. […]

[5] = system: glutathione (GSH) in cultured astrocytes; experiment: Intracellular glutathione content, mBCl fluorescence; format: cell-based, rat; details: antagonist 1 µM, 30 min pre-incubation; ODN 0.1 nM, 1 h; flumazenil statement covers control and H2O2-treated cells
Method: as §1
Reduced GSH was measured by using the thiol-reactive probe mBCl. At the end of the treatment period, the culture medium was removed and the cells were incubated with the mBCl probe (40 µM) at 37°C for 30 min and then washed twice with PBS. Fluorescence intensity was measured with excitation at 360 nm and emission at 485 nm, using a microplate reader (Bio-Tek FLx 800).

[6] = 30 min pre-incubation, then 1 h 300 µM H2O2 with ODN 0.1 nM, FDA fluorescence

Q: With O=S(=O)(NCCNC/C=C/c1ccc(Br)cc1)c1cccc2cnccc12 [H89] as the compound, how does the “effect of inhibitor on dbcAMP-promoted astroglial cell survival” value ([1]; 30 min pre-incubation) read?
A: The value was “suppressed”.

Q: And the “effect of pathway inhibitor on the protective action of ODN” value (“effect of pathway inhibitor” for short) [1, 6]?
A: Its value is “totally abrogated the protective action of ODN”.

Q: What about the “effect of antagonist or inhibitor on ODN-induced ERK phosphorylation” value (“effect of antagonist or inhibitor” below) [2] of the same compound?
A: The value was “suppressed”.

Q: And the “effect of inhibitor on the inhibitory action of ODN on H2O2-induced caspase-3 activity” value [3]?
A: The value was “abrogated the inhibitory effect of ODN on H2O2-induced caspase-3 activity”.

Q: How did the “effect of inhibitor on dbcAMP-promoted astroglial cell survival” value ([1]; 30 min pre-incubation) turn out when N#CC(=C(/N)Sc1ccccc1N)/C(C#N)=C(/N)Sc1ccccc1N [U0126] was run?
A: The value was “suppressed”.

Q: And the “effect of pathway inhibitor” value [1, 6]?
A: Its value is “totally abrogated the protective action of ODN”.

Q: What about the “effect of antagonist or inhibitor” value [2] of the same compound?
A: The value was “suppressed”.

Q: And the “effect of inhibitor on the inhibitory action of ODN on H2O2-induced caspase-3 activity” value [3]?
A: The value was “abrogated the inhibitory effect of ODN on H2O2-induced caspase-3 activity”.

Q: With COc1ccc2c(c1)CC[C@@H]1[C@@H]2CC[C@]2(C)[C@@H](NCCCCCCN3C(=O)C=CC3=O)CC[C@@H]12 [U73122] as the compound, how does the “effect of pathway inhibitor” value [1, 6] read?
A: The value was “did not modify the protective effect of ODN”.

Q: And the “effect of inhibitor on the inhibitory action of ODN on H2O2-induced caspase-3 activity” value [3]?
A: Its value is “neither U73122 nor chelerythrine could suppress the effect of ODN”.

Q: What does the source list for COc1ccc2c(c[n+](C)c3c4cc5c(cc4ccc23)OCO5)c1OC [chelerythrine]?
A: effect of pathway inhibitor on the protective action of ODN [1, 6]: did not modify the protective effect of ODN; effect of inhibitor on the inhibitory action of ODN on H2O2-induced caspase-3 activity [3]: neither U73122 nor chelerythrine could suppress the effect of ODN

Q: With O=C1CN=C(c2ccccc2Cl)c2cc([N+](=O)[O-])ccc2N1 [clonazepam] as the compound, how does the “protective effect of receptor ligand on H2O2-induced cell death” value ([1]; FDA fluorescence) read?
A: The value was “unable to block the effect of H2O2”.

Q: What does the source list for CCCC(=O)Nc1ncnc2c1ncn2[C@@H]1O[C@@H]2COP(=O)(O)O[C@H]2[C@H]1OC(=O)CCC [dbcAMP, N^6,2′-O-dibutyryladenosine 3′,5′ cyclic monophosphate]?
A: protective effect of cAMP analog on H2O2-evoked cell death ([1]; dbcAMP 1 mM, 1 h 300 µM H2O2, FDA fluorescence): mimicked the protective effect of ODN on H2O2-evoked cell death; effect of cAMP analog on H2O2-evoked caspase-3 activation ([3]; dbcAMP 1 mM, 1 h 300 µM H2O2): mimicked the effect ODN on H2O2-evoked caspase-3 activation

Q: For CCOC(=O)c1ncn2c1CN(C)C(=O)c1cc(F)ccc1-2 [flumazenil], which “effect of receptor antagonist on the glioprotective action of ODN” value ([1]; antagonist 1 µM, 30 min pre-incubation, then 1 h 300 µM H2O2 with ODN 0.1 nM, FDA fluorescence) is on record?
A: The value was “did not affect the protective effect of ODN”.

Q: What about the “effect of antagonist on ODN-stimulated cAMP formation” value [4] of the same compound?
A: The value was “did not affect the increase of cAMP induced by ODN”.

Q: And the “effect of antagonist or inhibitor” value [2]?
A: The value was “did not affect ODN-induced ERK phosphorylation”.

Q: And the “effect of antagonist on ODN-stimulated GSH formation” value [5]?
A: Its value is “did not impair the effect of ODN on glutathione production neither in control nor in H2O2-treated cells”.

Q: With “[Ala^15]ODN: inactive ODN analog (QATVGDVNTDRPGLADLK; Octadecaneuropeptide; UniProt P11030 34-51, looked up, variant L15A)” as the compound, how does the “protective effect of receptor ligand on H2O2-induced cell death” value ([1]; FDA fluorescence) read?
A: Its value is “devoid of protective activity”.
